According to patent US7381749B2, “Sulfonamides as inhibitors of histone deacetylase for the treatment of disease” (Kalypsys, Inc., priority 2004, dated 2008):

Experiments:
HDAC in cells = assay: Cellular IC50 (cellular assays: histone hyperacetylation cytoblot / differential cytotoxicity); type: cell-based; conditions: transformed cell lines (e.g. HeLa, A549, MCF-7); cell line not specified
Procedure: These two secondary assays evaluates a compound's ability to inhibit HDAC in cells by measuring cellular histone acetylation levels. The cytoblot facilitates quantitative EC50 information for cellular HDAC inhibition. Transformed cell lines (e.g. HeLa, A549, MCF-7) are cultured under standard media and culture conditions prior to plating.
Cells (approx. 2,500/well) are allowed to adhere 10-24 hours to wells of a 384-well Greiner PS assay plate in media containing 1-5% serum. Cells are treated with appropriate compound and specific concentrations for 0 to 24 hours. Cells are washed once with PBS (60 ul) and then fixed (95% ethanol, 5% acetic acid or 2% PFA) for 1 minute at RT (30 ul). Cells are blocked with 1% BSA for 1 hour and washed and stained with antibody (e.g. anti-Acetylated Histone H3, Upstate Biotechnology), followed by washing and incubation with an appropriate secondary antibody conjugated to HRP or fluorophore. For luminescence assays, signal is generated using Luminol substrate (Santa Cruz Biotechnology) and detected using an Aquest plate reader (Molecular Devices).
Differential Cytotoxicity Assay:
HDAC inhibitors display differential cytotoxicity toward certain transformed cell lines. Cells are cultured according to standard ATCC recommended conditions that are appropriate to each cell type. Compounds were tested for their ability to kill different cell types (normal and transformed) using the ATPlite luminescence ATP detection assay system (Perkin Elmer). Assays are run in either 384-well or 1536-well Greiner PS plates. Cells (30 ul or 5 ul, respectively) are dispensed using either multichannel pipette for 384-well plates, or proprietary Kalypsys bulk liquid dispenser for 1536-well plates. Compounds added using proprietary pin-transfer device (500 nL or 5 nL) and incubated 5 to 30 hours prior to analysis. Luminescence is measured using Aquest plate reader (Molecular Devices).

HDAC = assay: In vitro HDAC-inhibition assay (Fluor de Lys fluorescent substrate); type: biochemical; conditions: HDAC enzyme source (e.g. partially purified nuclear extract or immunopurified HDAC complexes)
Procedure: In vitro HDAC-Inhibition Assay:
This assay measures a compound's ability to inhibit acetyl-lysine deacetylation in vitro and was used as both a primary screening method as well as for IC50 determinations of confirmed inhibitors. The assay is performed in vitro using an HDAC enzyme source (e.g. partially purified nuclear extract or immunopurified HDAC complexes) and a proprietary fluorescent substrate/developer system (HDAC Quantizyme Fluor de Lys Fluorescent Activity Assay, BIOMOL). The assay is run in 1,536-well Greiner white-bottom plates using the following volumes and order of addition: • Step 1: Enzyme (2.5 ul) source added to plate (from refrigerated container) • Step 2: Compounds (50 nl) added with pin transfer device • Step 3: Fluor de Lys (2.5 ul) substrate added, incubate at RT, 30 minutes • Step 4: Developer (5 ul) solution is added (containing TSA), to stop reaction • Step 5: Plate Reader—data collection • The deacetylated fluorophore is excited with 360 nm light and the emitted light (460 nm) is detected on an automated fluorometric plate reader (Aquest, Molecular Devices).

| Structure (SMILES) | IC50 (HDAC in cells) [nM] | IC50 (HDAC) [nM] |
| --- | --- | --- |
| O=C(CSC(=O)c1cccnc1)c1ccc(NS(=O)(=O)c2ccc(OC(F)(F)F)cc2)cc1 [Example 02, Thionicotinic acid S-{2-oxo-2-[4-(4-trifluorometlioxy-benzenesulfonylamino)-phenyl]-ethyl}ester] | < 10000 |  |
| O=C(CSC(=O)c1ccco1)c1ccc(NS(=O)(=O)c2ccc(OC(F)(F)F)cc2)cc1 [Example 04, Furan-2-carbothioic acid S-{2-oxo-2-[4-(4-trifluoromethoxy-benzenesulfonylamino)-phenyl]-ethyl}ester] |  | < 1000 |
| CC(=O)Oc1ccccc1C(=O)SCC(=O)c1ccc(NS(=O)(=O)c2ccc(OC(F)(F)F)cc2)cc1 [Example 06, Acetic acid 2-{2-oxo-2-[4-(4-trifluoromethoxy-benzenesulfonylamino)-phenyl]-ethylsulfanylcarbonyl}-phenyl ester] | < 1000 |  |
| CN(C)c1ccc(C(=O)SCC(=O)c2ccc(NS(=O)(=O)c3ccc(OC(F)(F)F)cc3)cc2)cc1 [Example 07] | < 10000 | < 1000 |
| COC(=O)SCC(=O)c1ccc(NS(=O)(=O)c2ccc(OC(F)(F)F)cc2)cc1 [Example 08, Thiocarbonic acid O-methyl ester S-{2-oxo-2-[4-(4-trifluoromethoxy-benzenesulfonylamino)-phenyl]-ethyl}ester] | < 1000 | < 10000 |
| O=C(CSC(=O)c1ccccn1)c1ccc(NS(=O)(=O)c2ccc(OC(F)(F)F)cc2)cc1 [Example 09, Pyridine-2-carbothioic acid S-{2-oxo-2-[4-(4-trifluoromethoxy-benzenesulfonylamino)-phenyl]-ethyl}ester] | < 1000 | < 1000 |
| NCC(=O)SCC(=O)c1ccc(NS(=O)(=O)c2ccc(OC(F)(F)F)cc2)cc1 [Example 11, Amino-thioacetic acid S-{2-oxo-2-[4-(4-trifluoromethoxy-benzenesulfonylamino)-phenyl]-ethyl}ester] |  | < 1000 |
| CC(=O)SCC(=O)c1ccc(N(C)S(=O)(=O)c2ccc(OC(F)(F)F)cc2)cc1 [Example 12, Thioacetic acid S-(2-{4-[methyl-(4-trifluoromethoxy-benzenesulfonyl)-amino]phenyl}-2-oxo-ethyl)ester] | < 10000 |  |
| CC(=O)SCC(=O)c1ccc(N(C(C)C)S(=O)(=O)c2ccc(OC(F)(F)F)cc2)cc1 [Example 13, Thioacetic acid S-(2-{4-[isopropyl-(4-trifluoromethoxy-benzenesulfonyl)-amino]-phenyl}-2-oxo-ethyl)ester] |  | < 10000 |
| CC(=O)SCC(=O)c1ccc(NS(=O)(=O)c2ccc(OC(F)(F)F)cc2)cc1Cl [Example 14, Thioacetic acid S-{2-[2-chloro-4-(4-trifluoromethoxy-benzenesulfonylamino)-phenyl]-2-oxo-ethyl}ester] | < 50000 | < 1000 |
| CC(=O)SCC(=O)c1ccc(NS(=O)(=O)c2ccc(OC(F)(F)F)cc2)c(F)c1 [Example 15, Thioacetic acid S-{2-[3-fluoro-4-(4-trifluoromethoxy-benzenesulfonylamino)-phenyl]-2-oxo-ethyl}ester] |  | < 1000 |
| CC(=O)SCC(=O)c1ccc(NS(=O)(=O)c2ccc(C)cc2)cc1 [Example 16, Thioacetic acid S-{12-oxo-2-[4-(toluene-4-sulfonylamino)-phenyl]-ethyl}ester] | < 1000 | < 1000 |
| CC(=O)SCC(=O)c1ccc(NS(=O)(=O)c2cccc(C(F)(F)F)c2)cc1 [Example 17, Thioacetic acid S-{2-oxo-2-[4-(3-trifluoromethyl-benzenesulfonylamino)-phenyl]-ethyl}ester] | < 10000 | < 1000 |
| CC(=O)SCC(=O)c1ccc(NS(=O)(=O)c2ccc(F)cc2C)cc1 [Example 18, Thioacetic acid S-{2-[4-(4-fluoro-2-methyl-benzenesulfonylamino)-phenyl]-2-oxo-ethyl}ester] | < 1000 | < 1000 |
| CC(=O)SCC(=O)c1ccc(NS(=O)(=O)c2ccc(Cl)c(C(F)(F)F)c2)cc1 [Example 20, Thioacetic acid S-{2-[4-(4-chloro-3-trifluoromethyl-benzenesulfonylamino)-phenyl]-2-oxo-ethyl}ester] | < 1000 | < 1000 |
| COc1cccc(S(=O)(=O)Nc2ccc(C(=O)CSC(C)=O)cc2)c1 [Example 21, Thioacetic acid S-{2-[4-(3-methoxy-benzenesulfonylamino)-phenyl]-2-oxo-ethyl}ester] | < 1000 | < 1000 |

| Structure (SMILES) | IC50 (HDAC in cells) [nM] | IC50 (HDAC) [nM] |
| --- | --- | --- |
| CCS(=O)(=O)Nc1ccc(C(=O)CSC(C)=O)cc1 [Example 22, Thioacetic acid S-[2-(4-ethanesulfonylamino-phenyl)-2-oxo-ethyl]ester] | < 10000 | < 1000 |
| CC(=O)SCC(=O)c1ccc(NS(=O)(=O)c2cc(C)cc(C)c2)cc1 [Example 23, Thioacetic acid 2-[4-(3,5-dimethyl-benzenesulfonylamino)-phenyl]-2-oxo-ethyl ester] | < 10000 | < 1000 |
| CC(=O)SCC(=O)c1ccc(NS(=O)(=O)c2cn(C)c(C)n2)cc1 [Example 24, Thioacetic acid S-{2-[4-(1,2-dimethyl-1H-imidazole-4-sulfonylamino)-phenyl]-2-oxo-ethyl}ester] | < 10000 | < 1000 |
| CC(=O)SCC(=O)c1ccc(NS(=O)(=O)C(C)C)cc1 [Example 25, Thioacetic acid S-{2-oxo-2-[4-(propane-2-sulfonylamino)-phenyl]-ethyl}ester] |  | < 1000 |
| COc1ccc(S(=O)(=O)Nc2ccc(C(=O)CSC(C)=O)cc2)cc1OC [Example 27] | < 1000 | < 1000 |
| CC(=O)SCC(=O)c1ccc(NS(=O)(=O)c2ccc(Cl)cc2Cl)cc1 [Example 28] | < 1000 | < 1000 |
| CC(=O)SCC(=O)c1ccc(NS(=O)(=O)c2c(C)noc2C)cc1 [Example 29] | < 10000 | < 1000 |
| CC(=O)SCC(=O)c1ccc(NS(=O)(=O)c2sc(C)nc2C)cc1 [Example 30] | < 1000 | < 1000 |
| CC(=O)SCC(=O)c1ccc(NS(=O)(=O)c2cc(C)oc2C)cc1 [Example 31] | < 10000 |  |
| CC(=O)SCC(=O)c1ccc(NS(=O)(=O)c2ccccc2)cc1 [Example 33] | < 10000 | < 1000 |
| CC(=O)SCC(=O)c1ccc(NS(=O)(=O)c2ccc(F)cc2)cc1 [Example 34] | < 1000 | < 1000 |
| CC(=O)SCC(=O)c1ccc(NS(=O)(=O)c2ccccc2F)cc1 [Example 35] | < 1000 | < 1000 |
| CC(=O)SCC(=O)c1ccc(NS(=O)(=O)c2ccc(Cl)cc2)cc1 [Example 36] | < 1000 | < 1000 |
| CC(=O)SCC(=O)c1sc(NS(=O)(=O)c2ccc(OC(F)(F)F)cc2)nc1C [Example 42] |  | < 50000 |
| CC(=O)SCC(=O)c1sc(NS(=O)(=O)c2ccc(Cl)c(Cl)c2)nc1C [Example 43, Thioacetic acid-S-{2-[2-(3,4-Dichlorobenzenesulfonylamino)-4-methyl-thiazol-5-yl]-2-oxo-ethyl}-ester] |  | < 50000 |
| CC(=O)SCC(=O)c1ccc(S(=O)(=O)Nc2ccc(OC(F)(F)F)cc2)cc1 [Example 45, Thioacetic acid S-{2-oxo-2-[4-(4-trifluoromethoxy-phenylsulfamoyl)-phenyl]-ethyl}ester] | < 10000 |  |
